Several values for one entry are separate records, joined by “and”; a condition that tells them apart may be missing. Identical values can stand only once. Entries after “also recorded” stand apart in the source; their conditions may differ. Like-named read-outs stand apart in the source and are kept apart here.
Assays:
PKFB3 = assay: HIF-1 induced gene expression, U251 cells (Table 3), PKFB3; type: cell-based, human; conditions: HREs gcggGACGTGacgc, gacgCACGTGggca; E 100 nM, 11.1 and 11.3 1 μM
Protocol: (§1) U251 cells were plated in 24-well plates at a density of 20−30×10^3 cells per well (40−60×10^3 cells/ml) in RPMI (ATCC) supplemented with 5% FBS (Irvine Scientific). After 24 hours, polyamides were added to the adhered cells in cell media solutions at the appropriate concentration and incubated with the cells for 48 hours. […] When appropriate, echinomycin was added two hours prior to DFO stimulation. Isolation of RNA and subsequent cDNA synthesis were as previously described (19). When appropriate, HIF-1α siRNA (HIF-1α validated stealth duplex, Invitrogen) or mismatch control siRNA with similar GC content (Invitrogen) was transfected 48 hours prior to RNA isolation. Transfection of siRNA was achieved using Lipofectamine 2000 (Invitrogen) according to manufacturer's protocols. Quantitative real-time RT-PCR was performed using SYBR Green PCR Master Mix (Applied Biosystems) on an ABI 7300 instrument. Target gene mRNA was measured relative to β-glucuronidase as an endogenous control. Primer employed were: VEGF, L 5′[…]-3′ (SEQ ID NO:22), R 5′-GGGTACTCC TGGAAGATGTCC-3′ (SEQ ID NO:23); β-glucuronidase, L 5′-[…]-3′ (SEQ ID NO:24), R 5′-[…]-3′ (SEQ ID NO:25); FLT1, L 5′-[…]-3′ (SEQ ID NO:26), R 5′-[…]-3′ (SEQ ID NO:27).

PGK1 = assay: HIF-1 induced gene expression, U251 cells (Table 3), PGK1; type: cell-based, human; conditions: HREs gtgaGACGTGcggc, tgccGACGTGcgct, E 100 nM
Protocol: as §1

FLT1 HRE = assay: Quantitative DNase I footprint titration on pCSJ-FLT1, FLT1 HRE; type: binding
Protocol: Quantitative DNase I footprint titration experiments were used to measure the binding affinities of polyamides 11.1, 11.2, 11.3, and echinomycin on 5′ ^32P-labeled fragments of pGL2-VEGF-Luc and pCSJ-FLT1 containing promoter sequences containing the HREs of VEGF and FLT1, respectively. Quantitative DNase I footprint titration experiments were conducted as reported previously (56).

[1] = system: HIF-1 occupancy at the PGK1 HRE; assay: Chromatin immunoprecipitation of HIF-1α, U251 cells, PGK1 HRE; type: cell-based, human; conditions: DFO-induced, polyamides 1 μM, echinomycin 100 nM
Protocol: (§2) U251 cells were plated in 15 cm diameter plates and left to attach overnight. Media, time course, DFO, polyamide, echinomycin, and siRNA treatments were as described above. After the 16 hour DFO treatment, cells were treated with 1% formaldehyde for 10 minutes. Chromatin was isolated and sheared. HIF-1α antibodies (Novus Biologicals) were used to immunoprecipitate HIF-1-bound DNA fragments. After crosslink reversal, PCRs using primers targeted to the regions of interest were used to assess enrichment of bound fragments as compared to mock-precipitated (no antibody) controls. PCRs were monitored either using SYBR Green PCR Master Mix (Applied Biosystems) on an ABI 7300 instrument, or directly visualized using gel electrophoresis. The following primers were used: VEGF, L 5′-CCTTTGGGTTTTGCCAGA-3′ (SEQ ID NO:28), R 5′-CCAAGTTTGTGGAGCTGA-3′ (SEQ ID NO:29); CA9, L 5′-AAAAGGGCGCTCTGTGAGT-3′ (SEQ ID NO:30), R 5′-GCTGACTGTGGGGTGTCC-3′ (SEQ ID NO:31); PGK1, L 5′-CCCCTAAGTCGGGAAGGTT-3′ (SEQ ID NO:32), R 5′-[…]-3′ (SEQ ID NO:33).

VEGF mRNA = assay: DFO-induced VEGF mRNA by quantitative real-time RT-PCR, U251 cells; type: cell-based, human; conditions: for HIF-1 induced genes affected: VEGF: HRE tgcaTACGTGggct, E 100 nM, 11.1 and 11.3 1 μM, U251; for Effect on DFO-induced VEGF mRNA (in words) / Effect on induced VEGF expression (in words) / Induction of VEGF mRNA by DFO (in words), FIG. 15a legend: U251 cells; for Effect on DFO-induced VEGF mRNA (in words): 0.2 and 1 μM; for Effect on induced VEGF expression (in words): Example 2, polyamides 1 μM, echinomycin 100 nM; for Induction of VEGF mRNA by DFO (in words), FIG. 15a legend: echinomycin (100 nM), polyamides (10 μM)
Protocol: Cells were plated in 24-well plates at a density of 15-20×10^3 cells per well (30-40×10^3 cells/ml). Polyamides were added to adhered cells in solutions of cell media at the appropriate concentration and allowed to incubate with the cells for 48 h. […] Cells were harvested, RNA isolated, cDNA synthesized and quantitative real-time RT-PCR conducted as described previously (16). Briefly, RNA was isolated using the RNeasy kit (Qiagen), cDNA synthesized using Powerscript (BD Biosciences) and quantitative real-time RT-PCR performed using SYBR Green PCR Master Mix (Applied Biosystems) on an ABI 7300 instrument. VEGF expression was measured relative to β-glucuronidase (GUSB) as an endogenous control. Statistical analyses of results were determined using three independent biological replicates. The primer sequences used for VEGF and GUSB are available upon request. HeLa cells were purchased from ATCC and U251 cells were received as a gift from Dr Giovanni Melillo of the National Cancer Institute.
as §1

EGLN1 = assay: HIF-1 induced gene expression, U251 cells (Table 3), EGLN1; type: cell-based, human; conditions: HRE ggtgTACGTGcaga, E 100 nM
Protocol: as §1

TFRC = assay: HIF-1 induced gene expression, U251 cells (Table 3), TFRC; type: cell-based, human; conditions: HRE agcgTACGTGcctc; R siRNA, E 100 nM, 11.1 and 11.3 1 μM; unit not given
Protocol: as §1

EDN1 = assay: HIF-1 induced gene expression, U251 cells (Table 3), EDN1; type: cell-based, human; conditions: HRE aggcAACGTGcagc; E 100 nM, 11.1 and 11.3 1 μM
Protocol: as §1

[2] = system: HIF-1α occupancy at the VEGF HRE; assay: Chromatin immunoprecipitation with anti-HIF1α, U251 cells, VEGF HRE; type: cell-based, human; conditions: DFO-induced, polyamides 1 μM, echinomycin 100 nM
Protocol: Cells were plated on 15 cm diameter culture dishes and left to attach overnight. Polyamides were incubated with the cells for 48 h, and the cells were incubated for an additional 16 h after the addition of DFO to a final concentration of 300 μM. Cells were then treated with 1% formaldehyde for 10 min. Chromatin was isolated and sheared. HIF-1 antibodies (Novus Biologicals) were used to immunoprecipitate HIF-1 bound DNA fragments. After crosslink reversal, PCRs using primers flanking the HRE of VEGF were used to assess enrichment of bound fragments as compared to mock-precipitated (no antibody) controls. PCRs were monitored either using SYBR Green PCR Master Mix (Applied Biosystems) on an ABI 7300 instrument, or directly visualized using gel electrophoresis.
as §2

EGLN3 = assay: HIF-1 induced gene expression, U251 cells (Table 3), EGLN3; type: cell-based, human; conditions: HRE gggcTACGTGcaga, E 100 nM
Protocol: as §1

CA9 = assay: HIF-1 induced gene expression, U251 cells (Table 3), CA9; type: cell-based, human; conditions: HRE gctgTACGTGcatt; E 100 nM, 11.1 and 11.3 1 μM
Protocol: as §1

| SMILES | HIF-1 induced genes affected: PKFB3 (PKFB3) | HIF-1 induced genes affected: PGK1 (PGK1; 11.1 and 11.3 1 μM) | HIF-1 occupancy at PGK1 (chromatin immunoprecipitation) [1] | HIF-1 induced genes affected: VEGF (VEGF mRNA) | Effect on DFO-induced VEGF mRNA (in words) (VEGF mRNA) | Effect on induced VEGF expression (in words) (VEGF mRNA) | Induction of VEGF mRNA by DFO (in words), FIG. 15a legend (VEGF mRNA) | HIF-1 induced genes affected: EGLN1 (EGLN1; 11.1 and 11.3 1 μM) | HIF-1 induced genes affected: TFRC (TFRC) | HIF-1 induced genes affected: EDN1 (EDN1) | HIF-1α occupancy at the VEGF HRE (chromatin immunoprecipitation) [2] | HIF-1 induced genes affected: EGLN3 (EGLN3; 11.1 and 11.3 1 μM) | HIF-1 induced genes affected: CA9 (CA9) | Ka at the FLT1 HRE (FLT1 HRE) | other results |
| --- | --- | --- | --- | --- | --- | --- | --- | --- | --- | --- | --- | --- | --- | --- | --- |
| CN(CCCNC(=O)c1cccc(C(=O)O)c1)CCCNC(=O)c1cc(NC(=O)c2cc(NC(=O)c3nc(NC(=O)c4cc(NC(=O)[C@H](N)CCNC(=O)c5nc(NC(=O)c6cc(NC(=O)c7cc(NC(=O)c8sccc8Cl)cn7C)cn6C)cn5C)cn4C)cn3C)cn2C)cn1C [Polyamide 11] | 1.0 | -1.2 | minimally affected | -2.0 | inhibited dose dependently; also recorded: dose-dependent inhibition of VEGF | inhibited most of the increase in VEGF mRNA following DFO treatment | decrease VEGF mRNA levels to near non-induced levels | 1.1 | 1.1 | -2.5 | decreased occupancy of HIF-1α at the VEGF HRE; also recorded: inhibited | 1.0 | -2.1 |  | Ka at the FLT1 HRE (FLT1 HRE; listed as 11.1): 2.7 (+0.2)×10^9 M^−1 and 2.7 (±0.2)×10^9 M^−1; HIF-1α occupancy at the VEGF HRE (chromatin immunoprecipitation) ([2]; listed as 11.1): decreased |
| CN(CCCNC(=O)c1cccc(C(=O)O)c1)CCCNC(=O)c1cc(NC(=O)c2cc(NC(=O)c3cc(NC(=O)c4nc(NC(=O)[C@H](N)CCNC(=O)c5cc(NC(=O)c6cc(NC(=O)c7nc(NC(=O)c8nccn8C)cn7C)cn6C)cn5C)cn4C)cn3C)cn2C)cn1C [Polyamide 23] | 1.0 | 1.0 | minimally affected | -1.3 | more modest effect than its match congener 11; also recorded: modest activity at both concentrations |  | more modest effect | 1.0 | 1.4 | 1.3 | more modest effect compared with that of its match congener 11 | −1.1 | -1.1 | does not bind the FLT1 HRE with a measurable Ka | Effect on induced VEGF expression (in words) (VEGF mRNA; listed as 11.3): more modest effect on VEGF mRNA levels; also recorded: modest but measurable effect on VEGF expression; HIF-1α occupancy at the VEGF HRE (chromatin immunoprecipitation) ([2]; listed as 11.3): less so; also recorded: only modestly affected |
| CS[C@H]1SC[C@H]2C(=O)N(C)[C@@H](C(C)C)C(=O)OC[C@@H](NC(=O)c3cnc4ccccc4n3)C(=O)N[C@@H](C)C(=O)N(C)[C@@H]1C(=O)N(C)[C@@H](C(C)C)C(=O)OC[C@@H](NC(=O)c1cnc3ccccc3n1)C(=O)N[C@@H](C)C(=O)N2C [echinomycin, reference compound] | −82.0 |  | did not appear to affect HIF-1 occupancy at this locus | -34.0 |  | potently inhibits VEGF expression to levels below the non-induced control | potently inhibits VEGF mRNA to below non-induced levels |  | −2.3 | -31.0 | decreased |  | -9.4 | 2.9 (±0.7)×10^7 M^−1 | HIF-1 induced genes affected: PGK1 (PGK1): -3.3; HIF-1 induced genes affected: EGLN1 (EGLN1): −19.8; HIF-1 induced genes affected: EGLN3 (EGLN3): −33.6 |
